# Several values for one entry are separate records, joined by “and”; a condition that tells them apart may be missing. Equal entries are not always repeated. Structures can show the parent of a compound that is named as a salt.
# What was measured:
# [1] = target: T1, hCav3.2 channels (T-type; CACNA1H) (Homo sapiens, UniProt O95180, V664A); experiment: Cav3.2 assay (T-type), IonWorks Quattro planar array electrophysiology in stable HEK293 cells; format: cell-based; settings: for IC50: current elicited by the 1st depolarising pulse inhibited by 50%, read-out: pIC50 (tonic) (converted)
# T1 construct: predicted protein is equivalent to the full-length human variant NP_066921; expressed in transfected cells; plasmid pCIN5-human-alpha1H
# T1 sequence (O95180 whole entry V664A): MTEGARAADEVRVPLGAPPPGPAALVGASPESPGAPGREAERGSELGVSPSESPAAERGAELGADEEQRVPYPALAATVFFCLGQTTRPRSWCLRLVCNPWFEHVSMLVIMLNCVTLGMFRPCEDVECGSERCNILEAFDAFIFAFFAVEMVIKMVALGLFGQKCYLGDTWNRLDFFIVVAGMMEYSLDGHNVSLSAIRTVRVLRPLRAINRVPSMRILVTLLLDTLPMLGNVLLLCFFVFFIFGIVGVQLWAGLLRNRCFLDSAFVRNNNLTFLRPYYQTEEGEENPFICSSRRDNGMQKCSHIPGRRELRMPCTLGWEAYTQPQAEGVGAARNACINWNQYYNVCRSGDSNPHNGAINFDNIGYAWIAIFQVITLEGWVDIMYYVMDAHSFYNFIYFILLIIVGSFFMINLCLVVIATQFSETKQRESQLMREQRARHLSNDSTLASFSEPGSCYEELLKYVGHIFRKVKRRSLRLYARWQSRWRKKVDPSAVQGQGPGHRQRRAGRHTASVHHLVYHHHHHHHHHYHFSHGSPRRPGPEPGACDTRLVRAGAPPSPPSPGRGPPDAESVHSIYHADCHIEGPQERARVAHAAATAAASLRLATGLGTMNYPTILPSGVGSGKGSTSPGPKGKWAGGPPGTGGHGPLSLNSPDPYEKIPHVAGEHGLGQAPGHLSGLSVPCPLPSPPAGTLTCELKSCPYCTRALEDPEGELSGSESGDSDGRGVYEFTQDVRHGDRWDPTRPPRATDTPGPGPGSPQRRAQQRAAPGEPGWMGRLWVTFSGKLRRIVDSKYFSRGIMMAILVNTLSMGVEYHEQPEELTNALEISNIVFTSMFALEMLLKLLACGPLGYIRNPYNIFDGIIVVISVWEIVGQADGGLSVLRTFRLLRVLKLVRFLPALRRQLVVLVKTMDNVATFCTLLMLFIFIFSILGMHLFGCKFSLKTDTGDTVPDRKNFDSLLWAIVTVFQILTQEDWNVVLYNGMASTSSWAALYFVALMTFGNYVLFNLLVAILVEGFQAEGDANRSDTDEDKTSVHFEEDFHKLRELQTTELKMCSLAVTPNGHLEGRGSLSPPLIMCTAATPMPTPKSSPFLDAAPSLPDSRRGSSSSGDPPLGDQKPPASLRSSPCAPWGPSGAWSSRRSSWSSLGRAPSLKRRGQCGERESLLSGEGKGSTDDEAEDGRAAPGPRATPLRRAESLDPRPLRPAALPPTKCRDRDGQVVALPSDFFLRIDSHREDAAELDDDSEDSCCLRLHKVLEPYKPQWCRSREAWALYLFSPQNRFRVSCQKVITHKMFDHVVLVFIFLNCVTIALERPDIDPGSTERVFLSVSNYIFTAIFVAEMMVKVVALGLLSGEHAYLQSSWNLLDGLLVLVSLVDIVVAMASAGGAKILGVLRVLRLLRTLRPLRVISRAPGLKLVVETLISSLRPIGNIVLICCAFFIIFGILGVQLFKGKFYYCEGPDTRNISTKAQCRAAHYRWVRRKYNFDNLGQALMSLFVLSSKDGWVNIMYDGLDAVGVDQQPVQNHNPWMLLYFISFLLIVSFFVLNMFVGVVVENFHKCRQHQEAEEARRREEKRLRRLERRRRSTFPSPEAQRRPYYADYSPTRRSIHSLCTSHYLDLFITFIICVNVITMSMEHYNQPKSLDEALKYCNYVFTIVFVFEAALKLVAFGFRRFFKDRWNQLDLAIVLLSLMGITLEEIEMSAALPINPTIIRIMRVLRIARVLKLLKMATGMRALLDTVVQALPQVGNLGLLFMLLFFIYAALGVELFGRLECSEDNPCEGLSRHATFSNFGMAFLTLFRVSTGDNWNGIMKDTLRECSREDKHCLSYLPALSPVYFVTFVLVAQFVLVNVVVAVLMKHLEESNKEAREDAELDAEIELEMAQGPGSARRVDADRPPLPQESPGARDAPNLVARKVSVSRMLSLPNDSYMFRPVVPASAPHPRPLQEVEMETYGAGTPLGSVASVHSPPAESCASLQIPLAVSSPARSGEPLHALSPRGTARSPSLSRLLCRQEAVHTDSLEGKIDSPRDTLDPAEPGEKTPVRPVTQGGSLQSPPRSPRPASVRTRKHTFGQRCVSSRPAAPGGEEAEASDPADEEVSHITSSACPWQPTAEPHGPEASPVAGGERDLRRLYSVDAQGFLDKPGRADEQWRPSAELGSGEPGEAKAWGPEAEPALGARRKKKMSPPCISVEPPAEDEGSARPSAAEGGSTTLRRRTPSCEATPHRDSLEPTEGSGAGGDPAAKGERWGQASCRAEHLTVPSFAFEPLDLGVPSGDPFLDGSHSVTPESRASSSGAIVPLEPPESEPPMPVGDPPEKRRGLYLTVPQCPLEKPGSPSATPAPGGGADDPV
# Description: The ability of the compounds of the invention to modulate the voltage-gated calcium channel subtype Cav3.2 (T-Type) may be determined by the following assay.
# Stable cell lines expressing hCav3.2 channels were created by transfecting HEK293 cells with the plasmid pCIN5-human-alpha1H. pCIN5-human-alpha1H predicted protein is equivalent to the full-length human variant NP_066921 for the human ion channel CACNA1H (voltage dependent calcium channel T type alpha 1H subunit), the longer variant form. It contains minor alleles for two SNPs (Ala 664 and Arg 2077). However, in the absence of any knowledge about compound binding at this ion channel, these rare variants are not seen as issues. Stable cell line was selected by 500 ug/ml G418 (geneticin). The best cell line clone was selected by IonWorks. Cells were cultured in DMEM/F12 medium supplemented by 10% Foetal Bovine Serum (Gibco/Invitrogen #041-95750), 1% non-essential amino acids (PAA, M11-003) and 1% Penicillin-Streptomycin (Invitrogen, 15140-122). 500 ug/ml of G418 (PAA, P11-012) was added to maintain channel expression. Cells were grown and maintained at 37° C. in a humidified environment containing 5% CO2 in air. Cells were detached from the T175 culture flask for passage and harvesting using TrypLE (Gibco/Invitrogen cat #12604). For the experiment, cells were plated in a T175 culture flask 48 hours before running the assay to reach a 50-80% confluence the day of the experiment.
# Cells were grown to 50-80% confluence in a T175 flask. Cells were removed from the incubator and the media was aspirated. Cells were washed with 5 ml of warmed (37° C.) TrypLE and then 3 ml of warmed (37° C.) TrypLE was added to the flask for 6 min. The flask was tapped to dislodge cells and 5 ml of warmed (37° C.) external buffer with barium and magnesium was added to prepare a cell suspension. Cell suspension was then placed into a 15 ml centrifuge tube and centrifuged for 2 min at 1000 rpm. After centrifugation, the supernatant was removed and the cell pellet was resuspended in 4-5 ml of pre-warmed (37° C.) external solution with barium and magnesium using a 5 ml pipette to break up the pellet.
# Currents were recorded at room temperature using the IonWorks Quattro™ planar array electrophysiology technology (Molecular Devices Corp.) with PatchPlate™ PPC for Ionworks Quattro (Molecular Devices, 9000-0902). Stimulation protocols and data acquisition were carried out using a microcomputer (Dell Pentium 4). In order to determine planar electrode hole resistances (Rp), a 10 mV voltage step was applied across each well. These measurements were performed before cell addition. After cell addition a seal test was performed by applying a voltage step from −80 mV to −70 mV for 160 ms prior to antibiotic amphotericin-B solution (Sigma, […]) circulation to achieve intracellular access. Leak subtraction was conducted in all experiments by applying a 80 ms hyperpolarizing (10 mV) prepulse followed by a 80 ms at the holding potential before the test pulses, to measure leak current. Test pulses stepping from the holding potential of −120 mV to −40 mV were applied for 25 ms and repeated 10 times at a frequency of 3 Hz. In all experiments, the test pulse protocol was performed in the absence (pre-read) and presence (post-read) of a compound. Pre- and post-reads were separated by a compound addition followed by a 10 minute incubation.
# The intracellular solution contained the following (in mM): K-gluconate 120, KCl 20, MgCl2 5, EGTA 5, HEPES 10, adjusted to pH 7.35.
# Amphotericin-B solution was prepared as 50 mg/ml stock solution in DMSO and diluted to a final working concentration of 0.2 mg/ml in intracellular solution. The external solution contained the following (in mM): Na-gluconate 120, NaCl 20, HEPES 10, MgCl2 1, BaCl2 5, with a pH of 7.35.
# Compounds were prepared in DMSO as 10 mM stock solutions and subsequent 1:3 serial dilutions were performed. […]
# [2] = target: T2, hCav2.2 (N-type) calcium channel: human Cav2.2α (α1B) subunit with human β3 and α2δ1 auxiliary subunits (Homo sapiens, UniProt Q00975); experiment: hCav2.2 assay (N-type), IonWorks planar array electrophysiology in stable HEK293 cells; format: cell-based; settings: hydrochloride
# T2 construct: expressed in transfected cells; plasmids pCIN5-hCav2.2, pCIH-hCav β3, pCIP-α2δ1
# Method: Compounds as defined in the first or second aspect may be tested for in vitro biological activity in the hCav2.2 assay (N-type) in accordance with the following studies:
# Stable cell lines expressing the human Cav2.2α (α1B) subunit, along with the human β3 and α2δ1 auxiliary subunits were created following sequential transfection and selection of human embryonic kidney (HEK293) cells. HEK293 cells were cultured in Dulbecco's modified Eagles media/F12 media (Invitrogen, Cat #041-95750V) containing 10% fetal bovine serum, with added L-glutamine (2 mM; Invitrogen, Cat #25030-024) and non-essential amino acids (5%; Invitrogen, Cat #11140-035). […] These clonal cell lines were assessed for Cav2.2 α/β3-mediated current expression using the IonWorks planar array electrophysiology technology (described below). […]
# Currents were recorded at room temperature (21-23° C.) using the IonWorks planar array electrophysiology technology (Molecular Devices Corp.). […] In all experiments, the test pulse protocol was performed in the absence (pre-read) and presence (post-read) of a compound. Pre- and post-reads were separated by a compound addition followed by a 3-3.5 min incubation. […]
SMILES,IC50 [1],further results
"Cc1ccc2ccc(C(=O)N3CCN(S(=O)(=O)c4ccc(C#N)cc4C)CC3)cc2n1 [Compound 9, 3-Methyl-4-({4-[(2-methyl-7-quinolinyl)carbonyl]-1-piperazinyl}sulfonyl)benzonitrile hydrochloride]",≤ 31.6 µM,–
"Cc1ccc2ccc(C(=O)N3CCN(S(=O)(=O)c4ccc(C#N)cc4C)C[C@@H]3C)cc2n1 [Compound 10, 3-Methyl-4-({(3S)-3-methyl-4-[(2-methyl-7-quinolinyl)carbonyl]-1-piperazinyl}sulfonyl)benzonitrile]",≤ 31.6 µM,–
"Cc1c(C(=O)N2CCN(S(=O)(=O)c3ccc(OC(F)(F)F)cc3)CC2)ccc2cccnc12 [Compound 2, 8-Methyl-7-{[4-({4-[(trifluoromethyl)oxy]phenyl}sulfonyl)-1-piperazinyl]carbonyl}quinoline]",≤ 31.6 µM,–
"Cc1cc(C#N)ccc1S(=O)(=O)N1CCN(C(=O)c2cccc3ccncc23)CC1 [Compound 26, 4-{[4-(8-Isoquinolinylcarbonyl)-1-piperazinyl]sulfonyl}-3-methylbenzonitrile hydrochloride]",≤ 31.6 µM,–
"Cc1cc(C#N)ccc1S(=O)(=O)N1CCN(C(=O)c2ccc3cccnc3c2)CC1 [Compound 7, 3-Methyl-4-{[4-(7-quinolinylcarbonyl)-1-piperazinyl]sulfonyl}benzonitrile hydrochloride]",≤ 31.6 µM,–
"Cl.O=C(c1ccc2ccccc2n1)N1CCN(S(=O)(=O)c2ccc(C(F)(F)F)cc2)CC1 [Compound 3, 2-[(4-{[4-(Trifluoromethyl)phenyl]sulfonyl}-1-piperazinyl)carbonyl]quinoline hydrochloride]",25.1 µM and ≤ 31.6 µM,"pUD30 (use-dependent) ([1]; concentration producing 30% use-dependent inhibition, 10th versus 1st depolarising pulse, 3 Hz, -120 mV to -40 mV, hydrochloride): 5.4; pUD30 (use-dependent) ([2]; concentration producing 30% use-dependent inhibition, 10th versus 1st depolarising pulse, 10 Hz, -90 mV to +10 mV): 5.8; pIC50 (tonic) ([2]; current elicited by the 1st depolarising pulse inhibited by 50%): 4.6"
"C[C@H]1CN(S(=O)(=O)c2ccc(C(F)(F)F)cc2)CCN1C(=O)c1ccc2cccnc2c1 [Compound 1, 7-[((2S)-2-Methyl-4-{[4-(trifluoromethyl)phenyl]sulfonyl}-1-piperazinyl)carbonyl]quinoline]",≤ 31.6 µM,–
"Cc1cc(C#N)ccc1S(=O)(=O)N1CCN(C(=O)c2ccc3cccnc3c2C)[C@@H](C)C1 [Compound 15, 3-Methyl-4-({(3S)-3-methyl-4-[(8-methyl-7-quinolinyl)carbonyl]-1-piperazinyl}sulfonyl)benzonitrile]",≤ 31.6 µM,–
"O=C(c1cccc2cccnc12)N1CCN(S(=O)(=O)c2ccc(OC(F)(F)F)cc2)CC1 [Compound 30, 8-{[4-({4-[(Trifluoromethyl)oxy]phenyl}sulfonyl)-1-piperazinyl]carbonyl}quinoline]",≤ 31.6 µM,–

# Reference: patent US8697703B2, “Piperazine derivatives for blocking Cav2.2 calcium channels” (Convergence Pharmaceuticals Limited, priority 2010, dated 2014)
